Laboratory results as given in patent publication US20240294566A1, “ESTROGEN RECEPTOR BETA SELECTIVE LIGANDS” (Or-Genix Therapeutics, Inc., priority 2016, published 2024).

Experiments:
ERα [1] = molecular target: T1, ERα (Homo sapiens, UniProt P03372); assay: Homogeneous in vitro functional assay, coactivator recruitment (FRET); type: biochemical; details: FIG. 1
T1 sequence (P03372 311-547 limits assumed): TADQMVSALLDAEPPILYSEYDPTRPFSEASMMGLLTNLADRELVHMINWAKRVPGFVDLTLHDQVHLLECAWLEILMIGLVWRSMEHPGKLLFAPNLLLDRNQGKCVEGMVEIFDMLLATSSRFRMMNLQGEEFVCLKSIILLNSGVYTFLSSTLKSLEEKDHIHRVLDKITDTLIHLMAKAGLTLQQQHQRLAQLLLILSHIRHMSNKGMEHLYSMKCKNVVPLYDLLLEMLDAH
Procedure: (§1) Structures 15 and 15′ were tested in a functional assay for ERβ and ERα as described in Liu J. et al. A Homogeneous in Vitro Functional Assay for Estrogen Receptors: Coactivator Recruitment. Mol Endocrinology 17, 346-355 (2003). Briefly, a homogeneous in vitro functional assay for measuring ligand-dependent transactivation function of ERαa and ERβ was used to measure selectivity of structures 15 and 15′ as agonists for the two classes of receptors. Briefly, agonist binding of Structures 15 and 15′ were assessed by measuring Fluorescence Resonance Energy Transfer (FRET) between europium that is associated with ligand binding domains of ERα and ERβ, and allophycocyanine that is associated with co-activator peptide that is recruited to the LBD in response to agonist binding.

ERβ [2] = molecular target: T2, ERβ (Homo sapiens, UniProt Q92731); assay: as above; type: biochemical; details: for selectivity for ERβ: ERβ over ERα, functional assay
Procedure: as §1
Target sequence in this assay (Q92731 264-498 limits assumed): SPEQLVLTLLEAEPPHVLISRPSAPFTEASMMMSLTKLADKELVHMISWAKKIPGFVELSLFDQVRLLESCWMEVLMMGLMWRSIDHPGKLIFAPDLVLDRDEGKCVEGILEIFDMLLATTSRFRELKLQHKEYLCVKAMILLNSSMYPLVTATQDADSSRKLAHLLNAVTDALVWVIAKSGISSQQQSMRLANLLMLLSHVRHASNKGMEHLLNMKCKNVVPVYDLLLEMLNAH

ERβ [3] = molecular target: T2, ERβ; assay: Binding assay, inhibition of [3H] estradiol binding to hER; details: FIG. 2
Procedure: (§2) Structures 3 and 3' were tested in a binding assay for ERβ and ERα as described in Obourn […]. & Notides A. C. Hormone-and DNA-Binding Mechanisms of the Recombinant Human Estrogen Receptor. Biochemistry 32, 6229-6236 (1993). Briefly, agonist binding of Structure 3 and Structure 3' to ERα and ERβ were assessed by Scatchard analysis measuring inhibition of [^3H] estradiol binding to hER by Structure 3 and 3'.
Target sequence in this assay (Q92731 whole entry): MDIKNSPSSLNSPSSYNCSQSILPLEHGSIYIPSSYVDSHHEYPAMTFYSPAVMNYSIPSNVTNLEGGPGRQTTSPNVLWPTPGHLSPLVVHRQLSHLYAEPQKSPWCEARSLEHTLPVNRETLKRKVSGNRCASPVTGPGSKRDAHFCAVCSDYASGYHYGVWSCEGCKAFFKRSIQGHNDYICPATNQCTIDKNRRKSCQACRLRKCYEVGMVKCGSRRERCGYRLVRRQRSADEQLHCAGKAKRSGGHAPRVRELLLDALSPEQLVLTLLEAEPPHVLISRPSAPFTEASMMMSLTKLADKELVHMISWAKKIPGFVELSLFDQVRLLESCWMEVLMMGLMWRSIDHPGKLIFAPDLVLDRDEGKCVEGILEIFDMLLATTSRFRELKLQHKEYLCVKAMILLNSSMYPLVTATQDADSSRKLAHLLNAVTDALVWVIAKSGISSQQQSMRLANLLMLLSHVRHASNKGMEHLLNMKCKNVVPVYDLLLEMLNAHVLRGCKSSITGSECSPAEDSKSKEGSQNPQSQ

ERα [4] = molecular target: T3, ERα (Homo sapiens, UniProt P03372); assay: as above
T3 sequence (P03372 1-595): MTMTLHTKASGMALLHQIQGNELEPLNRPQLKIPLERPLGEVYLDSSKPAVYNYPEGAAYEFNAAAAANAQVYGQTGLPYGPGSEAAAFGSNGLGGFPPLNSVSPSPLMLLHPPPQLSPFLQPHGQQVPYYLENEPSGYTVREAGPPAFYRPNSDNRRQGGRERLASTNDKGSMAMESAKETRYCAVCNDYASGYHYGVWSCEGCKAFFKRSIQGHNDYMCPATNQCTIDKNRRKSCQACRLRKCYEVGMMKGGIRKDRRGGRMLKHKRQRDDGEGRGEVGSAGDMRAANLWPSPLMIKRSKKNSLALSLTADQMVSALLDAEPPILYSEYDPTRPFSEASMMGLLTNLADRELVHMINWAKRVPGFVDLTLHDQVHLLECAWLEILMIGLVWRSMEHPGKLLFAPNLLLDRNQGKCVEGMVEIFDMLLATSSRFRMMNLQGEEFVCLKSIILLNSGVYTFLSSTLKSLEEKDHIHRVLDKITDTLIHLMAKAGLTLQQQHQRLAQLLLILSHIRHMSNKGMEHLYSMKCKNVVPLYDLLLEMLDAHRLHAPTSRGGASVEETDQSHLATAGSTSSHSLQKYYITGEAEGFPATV
Procedure: as §2

ERβ [5] = molecular target: T2, ERβ; assay: Dual estrogen receptor TR-FRET functional assay; type: biochemical; details: dual ER TR-FRET assay, FIG. 3
Procedure: (§3) Structures 3 and 3' were tested in a functional assay for ERβ and ERα as described in […]., Puetter V., Otto C. Parczyk K. & Bader B. A Dual Estrogen Receptor TR-FRET Assay for Simultaneous Measurement of Steroid Site Binding and Coactivator Recruitment. J Biomolec Screening 15, 268-278 (2010). Briefly, agonist binding of Structures 3 and 3' to ERα and ERβ were assessed by a dual estrogen receptor TR-FRET assay.
Target sequence in this assay (Q92731 whole entry): as the sequence (Q92731 whole entry) above

ERα [6] = molecular target: T3, ERα; assay: Dual estrogen receptor TR-FRET functional assay; type: biochemical; details: dual ER TR-FRET assay
Procedure: as §3

Row | SMILES | selectivity for ERβ (ERβ [2]) | IC50 (ERβ [3]) | EC50 (ERβ [5]) | also measured
1 | COC(=O)CC[C@H]1C[C@H]2[C@@H]3CCc4cc(O)ccc4[C@H]3CC[C@]2(C)[C@H]1O [Compound 15] | > 10 fold |  |  | EC50 (ERα [1]): > 100 µM; EC50 (ERβ [2]; functional coactivator recruitment FRET assay, FIG. 1): ~10 µM
2 | COC(=O)CC[C@@H]1C[C@H]2[C@@H]3CCc4cc(O)ccc4[C@H]3CC[C@]2(C)[C@H]1O [Compound 15′, reference compound] | ~2 fold |  |  | 
3 | CCOC(=O)[C@H]1C[C@H]2[C@@H]3CCc4cc(O)ccc4[C@H]3CC[C@]2(C)[C@H]1O [Structure 3] |  | 100 nM | 3 µM | IC50 (ERα [4]; FIG. 2): 78 nM; EC50 (ERα [6]; FIG. 3A): 1080 nM
4 | CCOC(=O)[C@@H]1C[C@H]2[C@@H]3CCc4cc(O)ccc4[C@H]3CC[C@]2(C)[C@H]1O [Structure 3′, reference compound] |  | 140 nM | > 10 µM | IC50 (ERα [4]; FIG. 2B): 1.46 nM; EC50 (ERα [6]; FIG. 3B): 5.92 nM
